Earlier results, collected in PMC4333608 (Chemical Science, 2014).

Target: T1, São Paulo metallo-β-lactamase-1 (SPM-1) (Pseudomonas aeruginosa, UniProt Q8G9Q0)
T1 sequence (Q8G9Q0 29-276): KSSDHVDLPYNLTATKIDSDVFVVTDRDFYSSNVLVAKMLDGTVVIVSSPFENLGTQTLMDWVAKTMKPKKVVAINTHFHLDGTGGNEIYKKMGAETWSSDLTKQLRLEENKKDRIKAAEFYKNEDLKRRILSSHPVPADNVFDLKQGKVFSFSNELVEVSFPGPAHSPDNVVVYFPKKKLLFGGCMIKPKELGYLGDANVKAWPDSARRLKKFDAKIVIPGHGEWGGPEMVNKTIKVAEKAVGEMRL
Test: enzyme inhibition IC50
Assay type: biochemical

For O=C(O)c1cc(CS)cc(CS)c1 [3,5-bis(mercaptomethyl)benzoic acid], the IC50 is listed as 700 nM.
